Tests used:
INSR = molecular target: T1, INSR (Homo sapiens, UniProt P06213); assay: KINOMEscan; type: binding; conditions: read-out: % Ctrl
T1 construct: purchased DiscoveRx KINOMEscan

DMPK = molecular target: T2, DMPK (Homo sapiens, UniProt Q09013); assay: KINOMEscan; type: binding; conditions: read-out: % Ctrl
T2 construct: purchased DiscoveRx KINOMEscan

AMPK-alpha1 = molecular target: T3, AMPK-alpha1 (Homo sapiens, UniProt Q13131); assay: KINOMEscan; type: binding; conditions: read-out: % Ctrl
T3 construct: purchased DiscoveRx KINOMEscan

PDGFRA = molecular target: T4, PDGFRA (Homo sapiens, UniProt P16234); assay: KINOMEscan; type: binding; conditions: read-out: % Ctrl
T4 construct: purchased DiscoveRx KINOMEscan

EPHA7 = molecular target: T5, EPHA7 (Homo sapiens, UniProt Q15375); assay: KINOMEscan; type: binding; conditions: read-out: % Ctrl
T5 construct: purchased DiscoveRx KINOMEscan

CSNK1G2 = molecular target: T6, CSNK1G2 (Homo sapiens, UniProt P78368); assay: KINOMEscan; type: binding; conditions: read-out: % Ctrl
T6 construct: purchased DiscoveRx KINOMEscan
T6 sequence (P78368 whole entry): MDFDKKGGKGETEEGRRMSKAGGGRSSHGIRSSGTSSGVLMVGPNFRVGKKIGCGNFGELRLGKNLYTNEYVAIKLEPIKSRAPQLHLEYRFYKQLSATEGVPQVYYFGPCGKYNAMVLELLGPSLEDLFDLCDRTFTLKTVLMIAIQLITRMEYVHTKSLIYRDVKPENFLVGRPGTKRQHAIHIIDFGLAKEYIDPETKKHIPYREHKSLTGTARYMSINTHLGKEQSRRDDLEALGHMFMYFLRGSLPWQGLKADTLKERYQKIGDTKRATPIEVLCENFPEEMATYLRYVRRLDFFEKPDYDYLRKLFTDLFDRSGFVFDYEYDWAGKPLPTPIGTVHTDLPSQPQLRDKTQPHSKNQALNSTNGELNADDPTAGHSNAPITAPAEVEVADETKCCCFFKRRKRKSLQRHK

RSK2(KD1-N-t.) = molecular target: T7, RSK2(KD1-N-t.) (Homo sapiens, UniProt P51812); assay: KINOMEscan; type: binding; conditions: read-out: % Ctrl
T7 construct: RSK2(KD1-N-t.); purchased DiscoveRx KINOMEscan

HASPIN = molecular target: T8, HASPIN (Homo sapiens, UniProt Q8TF76); assay: KINOMEscan; type: binding; parameters: purchased DiscoveRx KINOMEscan; conditions: read-out: % Ctrl
T8 sequence (Q8TF76 1-798): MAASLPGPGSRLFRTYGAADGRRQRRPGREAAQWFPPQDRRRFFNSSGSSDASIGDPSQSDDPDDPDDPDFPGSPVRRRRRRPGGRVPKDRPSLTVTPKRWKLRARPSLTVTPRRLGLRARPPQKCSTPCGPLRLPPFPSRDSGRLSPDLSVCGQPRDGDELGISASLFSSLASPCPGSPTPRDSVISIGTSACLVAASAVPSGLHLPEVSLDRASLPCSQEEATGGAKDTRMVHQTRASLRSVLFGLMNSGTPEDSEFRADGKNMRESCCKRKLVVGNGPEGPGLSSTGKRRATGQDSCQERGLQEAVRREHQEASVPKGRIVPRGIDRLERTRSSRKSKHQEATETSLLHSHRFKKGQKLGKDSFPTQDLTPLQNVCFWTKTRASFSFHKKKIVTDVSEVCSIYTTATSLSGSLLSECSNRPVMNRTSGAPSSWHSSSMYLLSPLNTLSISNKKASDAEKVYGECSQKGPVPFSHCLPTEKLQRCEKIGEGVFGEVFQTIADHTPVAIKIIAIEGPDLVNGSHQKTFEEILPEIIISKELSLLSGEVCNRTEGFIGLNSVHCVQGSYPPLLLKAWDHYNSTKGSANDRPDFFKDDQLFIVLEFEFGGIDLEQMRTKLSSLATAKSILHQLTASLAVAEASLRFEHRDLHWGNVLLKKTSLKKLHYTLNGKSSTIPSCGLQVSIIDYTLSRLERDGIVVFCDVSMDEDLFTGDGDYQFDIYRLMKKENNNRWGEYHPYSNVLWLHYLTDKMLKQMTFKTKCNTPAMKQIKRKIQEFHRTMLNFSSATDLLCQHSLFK

TLK1 = molecular target: T9, TLK1 (Homo sapiens, UniProt Q9UKI8); assay: KINOMEscan; type: binding; conditions: read-out: % Ctrl
T9 construct: purchased DiscoveRx KINOMEscan

PIKFYVE = molecular target: T10, PIKFYVE (Homo sapiens, UniProt Q9Y2I7); assay: KINOMEscan; type: binding; conditions: read-out: % Ctrl
T10 construct: purchased DiscoveRx KINOMEscan
T10 sequence (Q9Y2I7 whole entry): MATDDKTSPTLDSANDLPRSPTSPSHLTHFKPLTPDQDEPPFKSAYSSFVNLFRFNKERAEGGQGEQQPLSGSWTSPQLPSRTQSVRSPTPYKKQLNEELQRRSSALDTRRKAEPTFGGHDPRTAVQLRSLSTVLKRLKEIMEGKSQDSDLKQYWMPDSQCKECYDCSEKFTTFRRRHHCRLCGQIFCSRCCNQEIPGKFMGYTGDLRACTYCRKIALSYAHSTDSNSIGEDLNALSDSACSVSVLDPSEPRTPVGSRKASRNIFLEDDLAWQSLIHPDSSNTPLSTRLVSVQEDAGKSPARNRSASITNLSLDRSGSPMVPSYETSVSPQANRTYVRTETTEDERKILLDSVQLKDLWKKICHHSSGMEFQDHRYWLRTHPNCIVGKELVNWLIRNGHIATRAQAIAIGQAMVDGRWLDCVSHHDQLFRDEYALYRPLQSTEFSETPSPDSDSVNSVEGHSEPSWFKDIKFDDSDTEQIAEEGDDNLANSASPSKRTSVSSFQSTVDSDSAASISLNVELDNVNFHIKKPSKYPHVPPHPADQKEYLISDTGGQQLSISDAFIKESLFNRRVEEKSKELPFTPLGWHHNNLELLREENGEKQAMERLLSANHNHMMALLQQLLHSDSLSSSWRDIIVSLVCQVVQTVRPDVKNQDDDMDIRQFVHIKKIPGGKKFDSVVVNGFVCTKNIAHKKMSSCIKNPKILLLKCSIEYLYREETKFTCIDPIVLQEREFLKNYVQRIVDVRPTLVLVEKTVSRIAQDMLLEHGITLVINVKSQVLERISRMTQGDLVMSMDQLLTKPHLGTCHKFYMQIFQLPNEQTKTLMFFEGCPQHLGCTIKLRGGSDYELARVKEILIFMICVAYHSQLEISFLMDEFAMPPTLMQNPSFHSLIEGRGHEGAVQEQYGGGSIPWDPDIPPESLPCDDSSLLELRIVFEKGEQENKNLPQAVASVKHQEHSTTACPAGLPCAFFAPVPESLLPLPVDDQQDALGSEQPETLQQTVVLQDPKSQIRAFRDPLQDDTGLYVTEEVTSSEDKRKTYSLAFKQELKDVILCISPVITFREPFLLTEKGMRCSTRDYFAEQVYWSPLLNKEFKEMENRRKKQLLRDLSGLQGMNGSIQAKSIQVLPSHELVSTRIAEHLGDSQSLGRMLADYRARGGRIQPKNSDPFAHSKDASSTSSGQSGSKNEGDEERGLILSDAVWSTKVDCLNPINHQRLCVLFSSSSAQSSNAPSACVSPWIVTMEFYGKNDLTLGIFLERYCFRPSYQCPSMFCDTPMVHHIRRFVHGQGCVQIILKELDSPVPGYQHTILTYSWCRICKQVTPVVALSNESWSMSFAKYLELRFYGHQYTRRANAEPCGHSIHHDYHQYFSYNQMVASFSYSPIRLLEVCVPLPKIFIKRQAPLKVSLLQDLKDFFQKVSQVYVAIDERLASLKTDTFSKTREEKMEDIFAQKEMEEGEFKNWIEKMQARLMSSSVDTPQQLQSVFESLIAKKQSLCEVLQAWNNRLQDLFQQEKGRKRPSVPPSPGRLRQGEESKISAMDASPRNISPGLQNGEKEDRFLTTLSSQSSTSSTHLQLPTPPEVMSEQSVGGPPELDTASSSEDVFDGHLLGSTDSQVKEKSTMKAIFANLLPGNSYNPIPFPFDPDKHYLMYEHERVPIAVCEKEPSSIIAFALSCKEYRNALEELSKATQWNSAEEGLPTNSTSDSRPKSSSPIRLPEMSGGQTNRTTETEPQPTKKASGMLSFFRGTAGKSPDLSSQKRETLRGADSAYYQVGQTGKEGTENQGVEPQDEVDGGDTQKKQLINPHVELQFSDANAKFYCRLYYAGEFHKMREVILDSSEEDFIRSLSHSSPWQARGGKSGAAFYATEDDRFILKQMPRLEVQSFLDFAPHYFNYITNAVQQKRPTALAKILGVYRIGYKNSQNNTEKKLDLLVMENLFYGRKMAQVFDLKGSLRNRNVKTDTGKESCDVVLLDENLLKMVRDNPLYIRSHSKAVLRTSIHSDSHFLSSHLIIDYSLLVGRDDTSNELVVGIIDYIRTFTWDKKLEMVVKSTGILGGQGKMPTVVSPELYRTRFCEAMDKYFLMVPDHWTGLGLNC

PHKG2 = molecular target: T11, PHKG2 (Homo sapiens, UniProt P15735); assay: KINOMEscan; type: binding; conditions: read-out: % Ctrl
T11 construct: purchased DiscoveRx KINOMEscan

ERK3 = molecular target: T12, ERK3 (Homo sapiens, UniProt Q16659); assay: KINOMEscan; type: binding; conditions: read-out: % Ctrl
T12 construct: purchased DiscoveRx KINOMEscan
T12 sequence (Q16659 whole entry): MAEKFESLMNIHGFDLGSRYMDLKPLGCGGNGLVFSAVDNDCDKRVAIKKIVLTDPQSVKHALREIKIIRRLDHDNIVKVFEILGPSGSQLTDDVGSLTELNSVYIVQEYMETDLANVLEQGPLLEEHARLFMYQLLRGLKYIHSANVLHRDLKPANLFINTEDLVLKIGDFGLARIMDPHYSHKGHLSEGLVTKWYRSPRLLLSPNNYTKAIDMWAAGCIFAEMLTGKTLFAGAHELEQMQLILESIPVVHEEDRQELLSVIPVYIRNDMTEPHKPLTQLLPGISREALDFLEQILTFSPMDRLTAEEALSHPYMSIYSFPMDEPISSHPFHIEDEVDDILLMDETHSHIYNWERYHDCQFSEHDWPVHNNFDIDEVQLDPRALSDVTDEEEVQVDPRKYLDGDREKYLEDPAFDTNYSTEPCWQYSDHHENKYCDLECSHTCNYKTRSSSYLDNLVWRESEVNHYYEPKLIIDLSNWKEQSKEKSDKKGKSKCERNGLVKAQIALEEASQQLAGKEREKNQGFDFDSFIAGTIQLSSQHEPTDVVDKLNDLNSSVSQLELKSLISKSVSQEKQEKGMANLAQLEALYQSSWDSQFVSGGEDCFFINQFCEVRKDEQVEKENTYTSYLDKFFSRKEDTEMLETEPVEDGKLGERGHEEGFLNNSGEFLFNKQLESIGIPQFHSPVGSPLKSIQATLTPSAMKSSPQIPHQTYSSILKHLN

PIK3CA(H1047Y) = molecular target: T13, PIK3CA(H1047Y) (Homo sapiens, UniProt P42336, H1047Y); assay: KINOMEscan; type: binding; conditions: read-out: % Ctrl
T13 construct: purchased DiscoveRx KINOMEscan

MKK7 = molecular target: T14, MKK7 (Homo sapiens, UniProt O14733); assay: KINOMEscan; type: binding; conditions: read-out: % Ctrl
T14 construct: purchased DiscoveRx KINOMEscan

WEE1 = molecular target: T15, WEE1 (Homo sapiens, UniProt P30291); assay: KINOMEscan; type: binding; conditions: read-out: % Ctrl
T15 construct: purchased DiscoveRx KINOMEscan

PRKCE = molecular target: T16, PRKCE (Homo sapiens, UniProt Q02156); assay: KINOMEscan; type: binding; conditions: read-out: % Ctrl
T16 construct: purchased DiscoveRx KINOMEscan

BTK = molecular target: T17, BTK (Homo sapiens, UniProt Q06187); assay: KINOMEscan; type: binding; conditions: read-out: % Ctrl
T17 construct: purchased DiscoveRx KINOMEscan

ITK = molecular target: T18, ITK (Homo sapiens, UniProt Q08881); assay: KINOMEscan; type: binding; conditions: read-out: % Ctrl
T18 construct: purchased DiscoveRx KINOMEscan

TAOK3 = molecular target: T19, TAOK3 (Homo sapiens, UniProt Q9H2K8); assay: KINOMEscan; type: binding; conditions: read-out: % Ctrl
T19 construct: purchased DiscoveRx KINOMEscan

BMPR1B = molecular target: T20, BMPR1B (Homo sapiens, UniProt O00238); assay: KINOMEscan; type: binding; conditions: read-out: % Ctrl
T20 construct: purchased DiscoveRx KINOMEscan

NEK5 = molecular target: T21, NEK5 (Homo sapiens, UniProt Q6P3R8); assay: KINOMEscan; type: binding; conditions: read-out: % Ctrl
T21 construct: purchased DiscoveRx KINOMEscan

PRKCQ = molecular target: T22, PRKCQ (Homo sapiens, UniProt Q04759); assay: KINOMEscan; type: binding; conditions: read-out: % Ctrl
T22 construct: purchased DiscoveRx KINOMEscan
T22 sequence (Q04759 whole entry): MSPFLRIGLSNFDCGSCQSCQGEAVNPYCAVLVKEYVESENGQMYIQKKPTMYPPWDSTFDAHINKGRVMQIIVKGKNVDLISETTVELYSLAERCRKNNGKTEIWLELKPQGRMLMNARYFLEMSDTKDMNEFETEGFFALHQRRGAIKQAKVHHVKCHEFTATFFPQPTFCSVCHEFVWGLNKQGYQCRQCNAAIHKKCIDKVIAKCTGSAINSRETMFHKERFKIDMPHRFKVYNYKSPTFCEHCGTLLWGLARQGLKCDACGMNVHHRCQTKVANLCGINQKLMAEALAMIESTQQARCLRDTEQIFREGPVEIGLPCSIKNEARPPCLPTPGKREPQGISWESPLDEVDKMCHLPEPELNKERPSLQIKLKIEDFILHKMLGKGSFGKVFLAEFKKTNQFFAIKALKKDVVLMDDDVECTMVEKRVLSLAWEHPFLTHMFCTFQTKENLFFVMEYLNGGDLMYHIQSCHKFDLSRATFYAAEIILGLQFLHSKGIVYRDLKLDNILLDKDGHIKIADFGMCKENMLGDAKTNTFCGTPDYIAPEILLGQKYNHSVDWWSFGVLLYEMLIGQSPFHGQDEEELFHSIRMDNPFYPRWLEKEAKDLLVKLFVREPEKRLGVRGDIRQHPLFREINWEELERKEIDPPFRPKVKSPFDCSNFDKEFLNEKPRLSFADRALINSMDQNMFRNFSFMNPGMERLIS

ARK5 = molecular target: T23, ARK5 (Homo sapiens, UniProt O60285); assay: KINOMEscan; type: binding; conditions: read-out: % Ctrl
T23 construct: purchased DiscoveRx KINOMEscan
T23 sequence (O60285 whole entry): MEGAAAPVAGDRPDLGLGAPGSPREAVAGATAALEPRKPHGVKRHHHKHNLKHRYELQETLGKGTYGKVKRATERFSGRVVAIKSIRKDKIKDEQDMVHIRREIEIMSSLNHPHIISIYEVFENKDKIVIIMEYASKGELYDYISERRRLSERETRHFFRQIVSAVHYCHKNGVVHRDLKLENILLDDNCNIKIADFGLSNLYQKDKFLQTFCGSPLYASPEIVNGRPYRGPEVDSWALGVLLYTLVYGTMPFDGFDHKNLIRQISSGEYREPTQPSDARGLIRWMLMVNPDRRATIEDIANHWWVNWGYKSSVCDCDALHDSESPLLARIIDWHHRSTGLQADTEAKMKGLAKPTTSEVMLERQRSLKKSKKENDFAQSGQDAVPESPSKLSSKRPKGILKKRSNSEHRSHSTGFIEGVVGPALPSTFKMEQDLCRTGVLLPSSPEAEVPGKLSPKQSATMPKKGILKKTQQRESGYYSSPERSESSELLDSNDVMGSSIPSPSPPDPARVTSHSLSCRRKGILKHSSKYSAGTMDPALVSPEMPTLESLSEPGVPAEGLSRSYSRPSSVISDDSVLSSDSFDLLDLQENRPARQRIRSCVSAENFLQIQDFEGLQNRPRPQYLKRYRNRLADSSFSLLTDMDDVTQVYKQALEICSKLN

JNK2 = molecular target: T24, JNK2 (Homo sapiens, UniProt P45984); assay: KINOMEscan; type: binding; conditions: read-out: % Ctrl
T24 construct: purchased DiscoveRx KINOMEscan

CAMK4 = molecular target: T25, CAMK4 (Homo sapiens, UniProt Q16566); assay: KINOMEscan; type: binding; conditions: read-out: % Ctrl
T25 construct: purchased DiscoveRx KINOMEscan

ACVR1 = molecular target: T26, ACVR1 (Homo sapiens, UniProt Q04771); assay: KINOMEscan; type: binding; conditions: read-out: % Ctrl
T26 construct: purchased DiscoveRx KINOMEscan

DYRK1A = molecular target: T27, DYRK1A (Homo sapiens, UniProt Q13627); assay: KINOMEscan; type: binding; conditions: read-out: % Ctrl
T27 construct: purchased DiscoveRx KINOMEscan

DRAK1 = molecular target: T28, DRAK1 (Homo sapiens, UniProt Q9UEE5); assay: KINOMEscan; type: binding; conditions: read-out: % Ctrl
T28 construct: purchased DiscoveRx KINOMEscan

GRK7 = molecular target: T29, GRK7 (Homo sapiens, UniProt Q8WTQ7); assay: KINOMEscan; type: binding; conditions: read-out: % Ctrl
T29 construct: purchased DiscoveRx KINOMEscan

MEK6 = molecular target: T30, MEK6 (Homo sapiens, UniProt P52564); assay: KINOMEscan; type: binding; conditions: read-out: % Ctrl
T30 construct: purchased DiscoveRx KINOMEscan

DCAMKL1 = molecular target: T31, DCAMKL1 (Homo sapiens, UniProt O15075); assay: KINOMEscan; type: binding; conditions: read-out: % Ctrl
T31 construct: purchased DiscoveRx KINOMEscan

MKNK1 = molecular target: T32, MKNK1 (Homo sapiens, UniProt Q9BUB5); assay: KINOMEscan; type: binding; conditions: read-out: % Ctrl
T32 construct: purchased DiscoveRx KINOMEscan
T32 sequence (Q9BUB5 whole entry): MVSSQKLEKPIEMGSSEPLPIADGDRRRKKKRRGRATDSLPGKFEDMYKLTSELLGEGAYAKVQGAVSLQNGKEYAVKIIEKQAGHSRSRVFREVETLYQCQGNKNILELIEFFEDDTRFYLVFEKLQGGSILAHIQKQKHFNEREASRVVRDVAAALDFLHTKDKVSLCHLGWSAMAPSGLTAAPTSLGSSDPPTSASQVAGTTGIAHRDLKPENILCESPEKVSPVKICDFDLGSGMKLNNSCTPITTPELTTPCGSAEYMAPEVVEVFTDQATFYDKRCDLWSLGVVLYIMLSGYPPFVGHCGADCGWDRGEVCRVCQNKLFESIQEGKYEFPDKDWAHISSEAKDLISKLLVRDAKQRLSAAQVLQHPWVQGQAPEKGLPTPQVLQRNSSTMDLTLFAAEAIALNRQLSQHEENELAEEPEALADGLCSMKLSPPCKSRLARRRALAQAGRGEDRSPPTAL

[1] = tested on: implanted invasive glioblastoma spheroids or gliobastomas PDXs; parameters: method as in PMID 28270132; conditions: 100 mg/kg; cited from earlier work

For `CN1CCC(CNc2ccc3ncc(C(=O)Nc4cccc(OC(F)(F)F)c4)n3n2)CC1` [Cpd 2], which remaining binding at 1 µM (INSR) is on record?
The remaining binding at 1 µM was 100%.

What about the remaining binding at 1 µM (DMPK) of the same compound?
Its remaining binding at 1 µM is 88%.

And the remaining binding at 1 µM (AMPK-alpha1)?
The remaining binding at 1 µM was 100%.

What about the remaining binding at 1 µM (PDGFRA) of the same compound?
The remaining binding at 1 µM was 81%.

And the remaining binding at 1 µM (EPHA7)?
The remaining binding at 1 µM was 100%.

And the remaining binding at 1 µM (CSNK1G2)?
The remaining binding at 1 µM was 100%.

What about the remaining binding at 1 µM (RSK2(KD1-N-t.)) of the same compound?
Its remaining binding at 1 µM is 89%.

What about the remaining binding at 1 µM (HASPIN) of the same compound?
Its remaining binding at 1 µM is 30%.

What about the remaining binding at 1 µM (TLK1) of the same compound?
Its remaining binding at 1 µM is 98%.

And the remaining binding at 1 µM (PIKFYVE)?
Its remaining binding at 1 µM is 45%.

And the remaining binding at 1 µM (PHKG2)?
The remaining binding at 1 µM was 89%.

And the remaining binding at 1 µM (ERK3)?
Its remaining binding at 1 µM is 100%.

What about the remaining binding at 1 µM (PIK3CA(H1047Y)) of the same compound?
The remaining binding at 1 µM was 96%.

What about the remaining binding at 1 µM (MKK7) of the same compound?
Its remaining binding at 1 µM is 100%.

What about the remaining binding at 1 µM (WEE1) of the same compound?
The remaining binding at 1 µM was 96%.

And the remaining binding at 1 µM (PRKCE)?
The remaining binding at 1 µM was 70%.

And the remaining binding at 1 µM (BTK)?
Its remaining binding at 1 µM is 100%.

What about the remaining binding at 1 µM (ITK) of the same compound?
The remaining binding at 1 µM was 95%.

And the remaining binding at 1 µM (TAOK3)?
Its remaining binding at 1 µM is 99%.

And the remaining binding at 1 µM (BMPR1B)?
The remaining binding at 1 µM was 99%.

What about the remaining binding at 1 µM (NEK5) of the same compound?
Its remaining binding at 1 µM is 98%.

What about the remaining binding at 1 µM (PRKCQ) of the same compound?
Its remaining binding at 1 µM is 55%.

What about the remaining binding at 1 µM (ARK5) of the same compound?
The remaining binding at 1 µM was 88%.

And the remaining binding at 1 µM (JNK2)?
Its remaining binding at 1 µM is 99%.

And the remaining binding at 1 µM (CAMK4)?
Its remaining binding at 1 µM is 100%.

What about the remaining binding at 1 µM (ACVR1) of the same compound?
Its remaining binding at 1 µM is 99%.

And the remaining binding at 1 µM (DYRK1A)?
Its remaining binding at 1 µM is 100%.

What about the remaining binding at 1 µM (DRAK1) of the same compound?
The remaining binding at 1 µM was 97%.

And the remaining binding at 1 µM (GRK7)?
The remaining binding at 1 µM was 41%.

What about the remaining binding at 1 µM (MEK6) of the same compound?
The remaining binding at 1 µM was 98%.

What about the remaining binding at 1 µM (DCAMKL1) of the same compound?
Its remaining binding at 1 µM is 85%.

And the remaining binding at 1 µM (MKNK1)?
Its remaining binding at 1 µM is 86%.

For `Fc1ccc(-n2cc(CCCCN3CCC4(CC3)OCc3ccccc34)c3ccccc32)cc1` [siramesine], which efficacy in vivo [1] is on record?
The efficacy in vivo was “ineffective in vivo”.
